The test system of assay [1] is A549 cells. Put plainly: Inhibition of LasB-dependent cytotoxicity of P. aeruginosa PAO1 culture supernatant on A549 cells (MTT). The note with it: 1 μM compound, 10% (v/v) PAO1 supernatant. Format: cell-based, human. The method, then:
Next, we set out to analyze the ability of the dual inhibitor 12 and the individual treatment or combination of galactoside 1 and thiol 2 to reduce LasB-dependent cytotoxicity from P. aeruginosa PAO1 culture supernatant on A549 cells. None of the investigated compounds influenced A549 cell viability at 100 μM in the absence of bacterial culture supernatant (Fig. S4 ^†). […]
In vitro evaluation of 12 and a combination of 1 and 2 using P. aeruginosa culture supernatant and A549 cells in a cell viability assay
The A549 cell line, derived from human lung adenocarcinoma, was grown in Dulbecco's Modified Eagle Medium (DMEM) supplemented with 10% Fetal Bovine Serum (FBS) and 1% penicillin-streptomycin. The cells were cultured following standard protocols for cell […]
To prepare the bacterial culture supernatant, individual flasks containing 15 mL of lysogeny broth (LB) culture medium were inoculated with PAO1 or PAO1 ΔlasB strains. Culture flasks were placed on a shaker and incubated at 37 °C and 180 rpm overnight for 18 hours. Following incubation, the bacterial cultures were subjected to centrifugation at 4 °C and 5000 rpm for […]
10 min, facilitating the separation of bacterial cells from the supernatant. The latter was filtered through a 0.22 µm sterile filter and stored at –80 °C until further use.
In a flat bottom 96-well plate (Corning™ Costar™), each well was seeded with 2.5–3.5*10 3 cells in 100 µL DMEM/FCS and then incubated at a temperature of 37 °C with 5% CO2 for 24 hours. Then, compounds 12 and 1 combined with 2 in concentrations of 100 µM, 10 µM, and 1 µM were mixed with 10% (v/v) of culture supernatant of P. aeruginosa PAO1 (DSM 22644, ATCC 15692) in DMEM/FCS. To minimize the potential negative effect of DMSO, the compound was initially dissolved in 99.9% DMSO, and a final assay concentration of 0.5% DMSO was applied. Additionally, the cells were exposed to 10% (v/v) PAO1 ΔlasB culture supernatant to analyze the effect caused by LasB, while DMEM/FCS without any treatment served as a control. The plates were then incubated at 37 °C with 5% CO2 for 24 hours before conducting the MTT assay.
To assess cell viability, the medium in the well plates was aspirated and a single wash was performed using 100 µL of phosphate buffered saline, pH 7.4 (PBS). A solution of 5 mg MTT (3-(4,5-dimethylthiazol-2-yl)-2,5-diphenyl tetrazolium bromide) per mL PBS was prepared and diluted to a concentration of 10% (v/v) in DMEM/FCS. Subsequently, 100 µL of this MTT solution was added to each well, and the plates were incubated at 37 °C for 3 hours with 5%
CO2. After incubation, the MTT solution was carefully removed, and the formazan crystals were dissolved by adding 150 µL of lysis solution (250 mL DMSO, 25 g SDS, and 1.25 mL AcOH) to each well. The plates were then incubated for an additional 30 min at 37 °C and then, the UV absorbance was measured using a PHERAstar microplate reader. The test samples were read at a wavelength of 550 nm, while the blank was read at 620 nm. At last, the data were statistically analyzed and presented graphically using GraphPad Prism 9 (Figure S4 and S5).
Evaluation of compounds 1, 2 and 12 in inhibiting LecA adhesion to A549 cells via […]
The A549 cell line were cultured following the protocols for cell maintenance described above.
In a flat-bottom cell culture black 96-well plate (Greiner Bio-One, #Cat 655090) each well was seeded with 1*104 cells in 100 µL DMEM/FCS and subsequently, incubated overnight at 37 °C with 5% CO2. […]

The test system of assay [2] is LecA-FITC binding to human A549 cells. Kind of assay: Inhibition of LecA-FITC adhesion to A549 cells by fluorescence microscopy. Type of assay: cell-based. The note with it: concentrations tested 1-100 µM, 10 μM LecA-FITC, 4 °C, 30 min. How it is done:
LecA-mediated cell adhesion is crucial for the initial infection and host-cell invasion of P. aeruginosa. Therefore, compounds 1 and 2, a combination of 1+2 and the dual inhibitor 12 were assessed for their ability to inhibit LecA-binding to human A549 cells. 10 μM of LecA-FITC and different concentrations of the respective compounds were incubated at 4 °C for 30 min with confluent A549 cells.
10 min, facilitating the separation of bacterial cells from the supernatant. The latter was filtered through a 0.22 µm sterile filter and stored at –80 °C until further use. […]
CO2. […] The plates were then incubated for an additional 30 min at 37 °C and then, the UV absorbance was measured using a PHERAstar microplate reader. The test samples were read at a wavelength of 550 nm, while the blank was read at 620 nm. At last, the data were statistically analyzed and presented graphically using GraphPad Prism 9 (Figure S4 and S5). […]
have any negative effects. The plate was then incubated at 4 °C for 30 min and wells were washed 5 times with PBS prior to imaging via fluorescence microscopy.
Fluorescence image acquisition, processing, and quantification
Fluorescence images were captured using an inverted fluorescence microscope (Leica DMi8) equipped with a 20x objective (HC PL APO CS2 20x/0.75 IMM UV), an FITC filter cube (EX: […]

Assay [3] concerns the target T1, LasB (Pseudomonas aeruginosa, UniProt Q02RJ6).
T1 construct: P. aeruginosa PA14 culture supernatant; made in house; host or cells: native secreted enzyme purified from P. aeruginosa PA14 culture supernatant (not recombinant)
The settings on record: previously observed activities of reported inhibitors; cited from earlier work.

The target in assay [4] is T1, LasB. Kind of assay: FRET-based in vitro LasB inhibition (proteolysis) assay. Format: biochemical, P. aeruginosa PA14. The method, then: The LasB activity of the thiol derivatives 11, 12, 17, 18, 24 and 25 was tested using a functional FRET-based in vitro proteolysis assay (Fig. 4A). […]
Expression and purification of LasB and LecA
LecA was expressed recombinantly using E. coli pET25-pail, whereas LasB was isolated from P. aeruginosa PA14 culture supernatant as described previously. 1,2 […]
In vitro inhibition assay for LasB
The in vitro inhibition assay was performed as described previously,2 using purified LasB (final concentration 0.3 nM), the fluorogenic substrate 2-aminobenzoyl-Ala-Gly-Leu-Ala-4-nitrobenzylamide (purchased from Peptides International (Louisville, KY, USA) or Vivitide, LLC (Gardner, MA, USA), final concentration 150 µM)) in assay buffer (50 mM Tris, pH 7.2, 2.5 mM CaCl2, 0.075% Pluronic F-127, 5% DMSO). Fluorescence was measured using a CLARIOstar plate reader (BMG Labtech, Ortenberg, Germany). IC50 values were calculated using GraphPad Prism 8 (GraphPad Software, San Diego, CA, USA) from at least three independent experiments performed in duplicate.

The target of assay [5] is T2, LecA (Pseudomonas aeruginosa, UniProt Q05097).
T2 construct: made in house; host or cells: E. coli (plasmid pET25-pail)
T2 sequence (Q05097 whole entry): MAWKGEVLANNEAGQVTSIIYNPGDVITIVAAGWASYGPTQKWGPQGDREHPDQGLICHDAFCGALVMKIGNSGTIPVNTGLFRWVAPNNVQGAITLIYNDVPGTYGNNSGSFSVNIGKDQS
Kind of assay: Surface plasmon resonance direct LecA binding assay (immobilized LecA). Further details: species or system P. aeruginosa. The note with it: for time to reach equilibrium binding with immobilized LecA / k a / k d: SPR; for k a / k d: immobilized LecA. The text has this:
Therefore, we measured the LecA affinity of thiol derivatives 17, 18, 24 and 25 and disulfides 26a, 26b and 27 using surface plasmon resonance (SPR) with LecA covalently immobilized on a sensor chip via amide coupling (Fig. 5 and Table 1). […] Thiols 17, 18, 24 and 25 reached equilibrium binding within 60 s of interaction with immobilized LecA, followed by their dissociation with moderate off-rates. […] Due to the very small off-rates for 26a, 26b and 27, these values have been calculated based on the response at […] of the injected compound and monitoring their dissociation for 30 min (Fig. S2 ^†). The observed very tight binding to immobilized LecA required optimization of the protein surface regeneration procedure. Effective conditions were identified as one injection of 50 mm isopropyl β-D-thiogalactoside in the running buffer, followed by one injection of 20 mm EDTA disodium salt in water. The regenerated chip surface was controlled using an injection of 1 to ensure that the activity of LecA was maintained.
Surface plasmon resonance direct LecA binding assay
SPR experiments were performed on a Reichert 2-channel SPR SR7500DC (Reichert Technologies Life Sciences, Buffalo, NY, USA) at 25 °C. For LecA immobilization, the surface of a HC1000M sensor chip (XanTec bioanalytics GmbH, Düsseldorf, Germany) was preequilibrated with borate buffer (1 M NaCl, 0.1 M sodium borate pH 9.0), followed by activation of the polycarboxylate hydrogel with 0.2 M N-hydroxysuccinimide (NHS) and 0.4 M 1-ethyl-3-(3-dimethylaminopropyl)carbodiimide hydrochloride (EDC‧HCl) in MilliQ water in both channels for 240 s (flow rate 10 μL/min) until the binding response reached 1200 RU.
Then, LecA (100 μg/mL) in 10 mM sodium acetate pH 3.6 was injected on the activated chip surface of one channel (injection time 420 s, flow rate 10 μL/min) and 6000 RU of LecA were immobilized. Unreacted NHS esters in both channels were blocked with 1 M ethanolamine hydrochloride in MilliQ water pH 8.5 (injection time 360 s, flow rate 10 μL/min).
Test compound stock solutions were prepared in DMSO (20 mM stocks for monovalent LecA inhibitors, 20 µM stocks for divalent LecA inhibitors) and were subsequently diluted in 10 mM phosphate buffer (pH 7.4, 2.7 mM KCl, 137 mM NaCl, 100 μM CaCl2) to obtain solutions with […]
Monovalent inhibitors 17, 18, 24 and 25 were injected for 120 s (flow rate 50 μL/min) at concentrations ranging from 0.39–100 µM. Divalent inhibitors 26a, 26b and 27 were injected for 120 s (flow rate 50 μL/min) at concentrations 50–350 nM. The chip surface was regenerated after each inhibitor injection by one injection of 50 mM IPTG in running buffer (10 mM phosphate buffer, pH 7.4, 2.7 mM KCl, 137 mM NaCl, 100 μM CaCl2, 2% DMSO) followed by one injection 20 mM EDTA disodium salt in MilliQ water, and then followed by three injections of the running buffer (injection time 120 s, flow rate 50 μL/min). 100 µM pNP-Gal (1) in running buffer was injected before each analyte to monitor and ensure chip regeneration and […]
Affinity/equilibrium analysis was performed for 1 on the same chip. A stock solution of 1 (10 mM in PBS/CaCl2 buffer) was prepared, then diluted to the required concentrations in running buffer and injected at 1.56–400 µM (injection time 60 s, flow rate 50 μL/min) without regeneration steps. Data analysis was performed using TraceDrawer software (Ridgeview Instruments) using a 1:1 binding model to fit the experimental data. Spikes at the end of the injections were removed in TraceDrawer during the data analysis.
(In SPR one partner is held on a chip, and binding of the other changes the refractive index at the surface.)

SMILES strings stand for the structures. Like-named read-outs stand apart in the source and are kept apart here.

T1 sequence (Q02RJ6 198-498): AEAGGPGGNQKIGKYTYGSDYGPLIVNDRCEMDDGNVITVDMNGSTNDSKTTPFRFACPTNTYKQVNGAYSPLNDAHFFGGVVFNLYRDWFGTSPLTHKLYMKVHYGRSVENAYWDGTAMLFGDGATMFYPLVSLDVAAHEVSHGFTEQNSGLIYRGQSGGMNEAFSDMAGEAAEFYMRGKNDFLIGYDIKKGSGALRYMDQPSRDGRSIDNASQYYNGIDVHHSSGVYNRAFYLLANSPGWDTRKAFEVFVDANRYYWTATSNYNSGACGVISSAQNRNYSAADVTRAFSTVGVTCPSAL

Turning to `Cc1ccc(NC(=O)C(S)CC(C)C)cc1` (centres unmarked) [Compound 2, reference compound], the “A549 cell viability under PAO1 culture supernatant” value in assay [1] is recorded as “neither 1 nor 2 nor their combination had any effect”. Also, the “inhibition of binding of LecA-FITC to A549 cells” value in assay [2] was “failed to do so”.

Turning to `O=C(Nc1ccccc1)C(S)Cc1ccccc1` (centres unmarked) [Compound 3], in assay [3], the IC50 (as a rule, the midpoint of a concentration-inhibition curve) was 1.2 µM.

Consider `O=C(Nc1ccc(S[C@@H]2O[C@H](CO)[C@H](O)[C@H](O)[C@H]2O)cc1)[C@H](S)Cc1ccccc1` [Compound 17], for which the IC50 in assay [4] was determined as 0.73 µM. Also, in assay [5], binding was characterised by a dissociation constant (Kd) of 1.3 ± 0.54 µM, the “time to reach equilibrium binding with immobilized LecA” value (from here on “time to reach equilibrium binding”) is no more than 60 s, the k a is on record as 0.71 ± 0.14 ×10^4 M^−1 s^−1 and the k d is on record as 86 ± 20 ×10^−4 s^−1.

Compound `CC(C)C[C@@H](S)C(=O)Nc1ccc(S[C@@H]2O[C@H](CO)[C@H](O)[C@H](O)[C@H]2O)cc1` [Compound 18] had an IC50 in assay [4] of 0.51 µM. In assay [5], binding was characterised by a dissociation constant (Kd) of 0.63 ± 0.29 µM, the “time to reach equilibrium binding” value is listed as no more than 60 s, the k a is listed as 1.41 ± 0.47 ×10^4 M^−1 s^−1 and the k d is 82 ± 11 ×10^−4 s^−1.

Turning to `O=C(Nc1ccc(S[C@@H]2O[C@H](CO)[C@H](O)[C@H](O)[C@H]2O)cc1)[C@@H](S)Cc1ccccc1` [Compound 24], the IC50 in assay [4] was determined as 0.22 µM. In assay [5], binding was characterised by a dissociation constant (Kd) of 0.84 ± 0.16 µM, the “time to reach equilibrium binding” value was no more than 60 s, the k a is on record as 0.88 ± 0.23 ×10^4 M^−1 s^−1 and the k d was 72 ± 5 ×10^−4 s^−1.

In assay [4], `CC(C)C[C@H](S)C(=O)Nc1ccc(S[C@@H]2O[C@H](CO)[C@H](O)[C@H](O)[C@H]2O)cc1` [Compound 25] had an IC50 of 0.77 µM. In assay [5], binding was characterised by a dissociation constant (Kd) of 1 ± 0.59 µM, the “time to reach equilibrium binding” value is no more than 60 s, the k a was 0.90 ± 0.31 ×10^4 M^−1 s^−1 and the k d was 85 ± 2 ×10^−4 s^−1.

The values above are taken from publication PMC11339798, “Dual inhibitors of Pseudomonas aeruginosa virulence factors LecA and LasB” (Chemical Science, 2024).
